Numbered stars: 1 amine (or outer) side, 2 acyl side, 3 side chain; on linkers, the order of the positions; unused ones are H or OH. Bridge positions count the residues as written; N and C are the ends. Square brackets hold non-standard residues; d marks the D form. Peptide text beside a SMILES is read from it. * marks the point of attachment. NH(4-amidinobenzyl) = N=C(N)c1ccc(CN*)cc1; 2Nal = N[C@@H](Cc1ccc2ccccc2c1)C(=O)O; Suc = O=C(CCC(=O)[*:2])[*:1]
Key:
Furin [1] = biological target: T1, Furin (Homo sapiens, UniProt P09958); assay: Inhibition of furin (unknown origin) using Pyr-RTKR-MCA as substrate incubated for 30 mins and measured by FRET assay
Mus musculus [2] = assay: Antifibrotic activity against bleomycin-induced mouse lung fibrosis model assessed as inhibition of hydroxyproline content in lung at 10 mg/kg, po administered once daily; type: functional
Furin [3] = biological target: T1, Furin; assay: Inhibition of furin in human U2OS cells measured after 24 hrs by fluorescence assay; type: cell-based
Mus musculus [4] = assay: Antifibrotic activity against bleomycin-induced mouse lung fibrosis model assessed as inhibition of TGF-beta secretion in lung at 10 mg/kg, po administered once daily; type: functional
[5] = Inhibition of migration of human HT-1080 cells at 100 uM measured by calcein AM/ethidium homodimer (EthD-1) staining method; type: functional
[6] = Cytotoxicity against chinese hamster CHO-DG44 cells assessed as cell viability at 100 uM and measured after 2 hrs by WST-1 method; type: toxicity, cell-based, Cricetulus griseus; conditions: read-out: Activity
RAW264.7 = assay: Protective activity against Anthrax toxin-induced cytotoxicity in mouse RAW264.7 cells measured by WST-1 method; type: functional; conditions: dose 100 µM
Furin [7] = biological target: T1, Furin; assay: Inhibition of Recombinant vaccinia-expressed furin (unknown origin) using Pyr-RTKR-MCA as substrate and measured by fluorescence based assay
[8] = Cytotoxicity against human HT-1080 cells assessed as cell viability at 100 uM and measured after 2 hrs by WST-1 method; type: toxicity, cell-based; conditions: read-out: Activity
[9] = Protective activity against Pseudomonas aeruginosa exotoxin A-induced cytotoxicity in chinese hamster CHO-DG44 cells measured by WST-1 method; type: functional, Cricetulus griseus; conditions: dose 100 µM
Furin [10] = biological target: T1, Furin; assay: Inhibition of furin (unknown origin)

T1 sequence (P09958 whole entry): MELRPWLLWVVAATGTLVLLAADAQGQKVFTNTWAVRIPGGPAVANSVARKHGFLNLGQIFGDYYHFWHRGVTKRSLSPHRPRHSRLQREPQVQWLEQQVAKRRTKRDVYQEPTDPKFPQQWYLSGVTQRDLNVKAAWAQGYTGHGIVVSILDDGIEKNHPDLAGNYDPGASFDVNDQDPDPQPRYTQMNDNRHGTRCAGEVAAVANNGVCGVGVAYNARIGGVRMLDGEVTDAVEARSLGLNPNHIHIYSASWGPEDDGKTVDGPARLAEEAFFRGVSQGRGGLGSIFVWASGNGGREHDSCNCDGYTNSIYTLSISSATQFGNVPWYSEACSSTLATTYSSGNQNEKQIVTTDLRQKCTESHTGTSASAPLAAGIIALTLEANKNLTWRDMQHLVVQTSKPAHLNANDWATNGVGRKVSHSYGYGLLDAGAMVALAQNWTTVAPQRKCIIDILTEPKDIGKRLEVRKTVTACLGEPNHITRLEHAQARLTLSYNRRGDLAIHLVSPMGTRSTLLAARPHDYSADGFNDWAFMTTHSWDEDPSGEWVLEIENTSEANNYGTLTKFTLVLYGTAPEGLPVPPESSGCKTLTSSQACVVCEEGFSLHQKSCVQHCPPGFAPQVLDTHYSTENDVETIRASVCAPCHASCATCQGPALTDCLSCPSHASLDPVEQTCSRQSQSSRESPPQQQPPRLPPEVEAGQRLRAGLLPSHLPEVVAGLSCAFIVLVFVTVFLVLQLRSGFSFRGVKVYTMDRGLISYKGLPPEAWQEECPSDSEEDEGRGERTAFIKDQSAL

For N=C(N)N[C@H]1C[C@@H](NC(=N)N)[C@H](Oc2ccc(C(=N)N)cc2C(=N)N)C[C@@H]1Oc1ccc(C(=N)N)cc1C(=N)N, the Ki (Furin [1]) was 100 nM.

C[C@@H](O)CN1CCN(c2ncc(Oc3cc(CN4CCC(CC(=O)O)CC4)cc(-c4cc(Cl)cc(Cl)c4)n3)cn2)CC1 gave an inhibition in vivo at 10 mg/kg (Mus musculus [2]) of 16%, a pXC50 (Furin [3]) of 7.7 and an inhibition in vivo at 10 mg/kg (Mus musculus [4]) of 23%.

With CN1CCN(c2cnc(Oc3cc(CN4CCC(CC(=O)O)CC4)cc(-c4cc(Cl)cc(Cl)c4)n3)cn2)CC1 the inhibition in vivo at 10 mg/kg (Mus musculus [2]) was 4%, the pXC50 (Furin [3]) was 7.3 and the inhibition in vivo at 10 mg/kg (Mus musculus [4]) was 22%.

N=C(N)Nc1ccc(O[C@H]2C[C@@H](Oc3ccc(NC(=N)N)cc3NC(=N)N)[C@H](NC(=N)N)C[C@@H]2NC(=N)N)cc1 gave an inhibition at 100 µM [5] of 30%, a viability at 2 h, 100 µM [6] greater than 90% and an Activity (RAW264.7) greater than 80%. For the same compound, the Ki (Furin [7]) was 89 nM, the viability at 2 h, 100 µM [8] was greater than 90% and the Activity [9] was greater than 30%.

CC(C)(C)[C@@H]1NC(=O)[C@H](CCCNC(N)N)NC(=O)[C@H](CCCNC(=N)N)NC(=O)[C@@H](N)CCCCNC(=O)CCN2CCN(CCC(=O)NCCCC[C@@H](C(=O)NCc3ccc(C(=N)N)cc3)NC1=O)CC2 showed a Ki (Furin [10]) of 0.491 nM.

Work on N=C(N)c1ccc(Oc2cccc(Oc3ccc(C(=N)N)cc3)c2)cc1 yielded a Ki (Furin [1]) of 100 nM.

With N=C(N)Nc1ccc(OC2CCCC(Oc3ccc(NC(=N)N)cc3NC(=N)N)C2)c(NC(=N)N)c1 (stereo not drawn) the inhibition at 100 µM [5] was less than 40%, the viability at 2 h, 100 µM [6] was greater than 90% and the Activity (RAW264.7) was 70%. It also gave a Ki (Furin [7]) of 1200 nM, a viability at 2 h, 100 µM [8] greater than 90% and an Activity [9] of 30%.

Work on CC(C)(C)[C@H](NC(=O)[C@H](CCCNC(=N)N)NC(=O)Cc1ccc(CN)cc1)C(=O)N[C@@H](CCCNC(=N)N)C(=O)NCc1ccc(C(=N)N)cc1 yielded a Ki (Furin [10]) of 0.0224 nM.

N=C(N)NCCC[C@H](NC(=O)[C@@H]1CCCCNC(=O)CCC(=O)N[C@@H](Cc2ccccc2)C(=O)N[C@@H](Cc2ccc3ccccc3c2)C(=O)N[C@@H](CCCNC(=N)N)C(=O)N[C@@H](CCCNC(=N)N)C(=O)N[C@@H](CCCNC(=N)N)C(=O)N[C@@H](CCCNC(=N)N)C(=O)N1)C(=O)NCc1ccc(C(=N)N)cc1 (F[2Nal]RRRRKR-{NH(4-amidinobenzyl)}; linker N-7 via Suc) showed a Ki (Furin [10]) of 0.0538 nM.

In the case of O=C(O)CC1CCN(Cc2cc(Oc3cnc(N4CCNCC4)nc3)nc(-c3cc(Cl)cc(Cl)c3)c2)CC1, the inhibition in vivo at 10 mg/kg (Mus musculus [2]) is reported as 6%, the pXC50 (Furin [3]) is reported as 7.6 and the inhibition in vivo at 10 mg/kg (Mus musculus [4]) is reported as -11%.

Compound N=C(N)Nc1ccc(OC2CCCC(Oc3ccc(NC(=N)N)cc3)C2)cc1 (stereo not drawn) has an inhibition at 100 µM [5] of 40%, a viability at 2 h, 100 µM [6] of 70% and an Activity (RAW264.7) of 30%. It also gave a Ki (Furin [7]) of 5500 nM and a viability at 2 h, 100 µM [8] of 70%.

N=C(N)N[C@H]1C[C@@H](NC(=N)N)[C@H](Oc2ccc(C(=N)N)cn2)C[C@@H]1Oc1ccc(C(=N)N)cn1 gave a Ki (Furin [1]) of 20 nM.

In the case of CC(C)(C)[C@H](NC(=O)[C@H](CCCNC(=N)N)NC(=O)Cc1ccc(CNC(=N)N)cc1)C(=O)N[C@@H](CCCNC(=N)N)C(=O)NCc1ccccc1, the IC50 (Furin [10]) is reported as 0.56 nM.

With N=C(N)NCCC[C@@H]1NC(=O)[C@H](Cc2ccc3ccccc3c2)NC(=O)[C@H](Cc2ccccc2)NC(=O)CCC(=O)NCCCC[C@@H](C(=O)N[C@@H](CCCCN)C(=O)NCc2ccc(C(=N)N)cc2)NC(=O)[C@H](CCCNC(=N)N)NC(=O)[C@H](CCCNC(=N)N)NC1=O (F[2Nal]RRRKK-{NH(4-amidinobenzyl)}; linker N-6 via Suc) the Ki (Furin [10]) was 0.618 nM.

Compound CC(C)[C@H](NC(=O)[C@H](CCCNC(=N)N)NC(=O)[C@@H](N)CCCNC(=N)N)C(=O)N[C@@H](CCCNC(=N)N)C(=O)NCc1ccc(C(=N)N)cc1 (H-RRVR-{NH(4-amidinobenzyl)}) has a Ki (Furin [10]) of 0.11 nM.

O=C(O)CC1CCN(Cc2cc(Oc3cnc(N4CCN(CCO)CC4)nc3)nc(-c3cc(Cl)cc(Cl)c3)c2)CC1 gave an inhibition in vivo at 10 mg/kg (Mus musculus [2]) of 11%, a pXC50 (Furin [3]) of 7.6 and an inhibition in vivo at 10 mg/kg (Mus musculus [4]) of 31%.

Work on CC(C)(C)[C@@H]1NC(=O)[C@H](CCCNC(=N)N)NC(=O)[C@H](CCCNC(=N)N)NC(=O)[C@@H](N)CCCCNC(=O)Cc2ccc(cc2)CNC(=O)CCCC(=O)NCCCC[C@@H](C(=O)NCc2ccc(C(=N)N)cc2)NC1=O yielded a Ki (Furin [10]) of 1.17 nM.

N=C(N)Nc1ccc(OCCCOc2ccc(NC(=N)N)cc2)cc1 gave an inhibition at 100 µM [5] of less than 40%, a viability at 2 h, 100 µM [6] of 60% and a Ki (Furin [7]) of 8300 nM. For the same compound, the viability at 2 h, 100 µM [8] was 60%.

In the case of Cc1cc(O[C@H]2C[C@@H](Oc3ccc(C(=N)N)c(C)c3)[C@H](NC(=N)N)C[C@@H]2NC(=N)N)ccc1C(=N)N, the Ki (Furin [1]) is reported as 10 nM.

Compound N=C(N)N[C@H]1C[C@@H](NC(=N)N)[C@H](Oc2ccc(C(=N)N)c3ccccc23)C[C@@H]1Oc1ccc(C(=N)N)c2ccccc12 has a Ki (Furin [1]) of 50 nM.

For CC(=O)NCC1CCN(Cc2cc(Oc3cnc(N4CCN(CCC(C)C(=O)O)CC4)nc3)nc(-c3cc(Cl)cc(Cl)c3)c2)CC1 (stereo not drawn), the inhibition in vivo at 10 mg/kg (Mus musculus [2]) was 62%, the pXC50 (Furin [3]) was 8.3 and the inhibition in vivo at 10 mg/kg (Mus musculus [4]) was 75%.
